According to US7932262B2 (Novartis AG, priority 2006, dated 2011):

What was measured:
PDK1 kinase = biological target: T1, PDK1 kinase (Homo sapiens, UniProt O15530); assay: PDK1 Kinase Alpha Screen Assay; format: biochemical; conditions: PDK1 Kinase Alpha Screen Assay; read-out: PDK1 IC50
T1 sequence (O15530 1-556): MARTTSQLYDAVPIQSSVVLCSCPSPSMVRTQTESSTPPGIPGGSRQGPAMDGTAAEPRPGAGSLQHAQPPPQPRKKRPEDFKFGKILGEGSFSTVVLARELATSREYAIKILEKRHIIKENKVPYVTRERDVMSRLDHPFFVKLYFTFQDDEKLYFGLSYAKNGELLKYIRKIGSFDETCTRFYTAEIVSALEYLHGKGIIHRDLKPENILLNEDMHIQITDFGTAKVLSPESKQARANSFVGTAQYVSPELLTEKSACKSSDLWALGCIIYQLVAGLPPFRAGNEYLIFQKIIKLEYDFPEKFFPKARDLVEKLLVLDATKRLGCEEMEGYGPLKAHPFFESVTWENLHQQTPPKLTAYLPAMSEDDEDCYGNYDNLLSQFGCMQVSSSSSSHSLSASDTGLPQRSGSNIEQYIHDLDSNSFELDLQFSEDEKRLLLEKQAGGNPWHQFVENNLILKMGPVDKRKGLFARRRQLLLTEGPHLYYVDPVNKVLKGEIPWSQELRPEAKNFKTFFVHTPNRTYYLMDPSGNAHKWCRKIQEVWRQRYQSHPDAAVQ
Method: 1. PDK1 Kinase Alpha Screen Assay
Reagents/Concentrations: The PDK1-4 peptide substrate, biotin-[…]-NH2, was purchased from the Tufts University Core Facility. The final concentration of PDK1-4 peptide substrate was 50 nM The ATP substrate (Adenosine-5′-triphosphate) was purchased from Roche Diagnostics. The final concentration of ATP substrate was 10 uM. Phospho-(Ser/Thr) PKA substrate antibody was purchased from Cell Signaling Technology. The final concentration of antibody was 0.3 mg/ml. The Alpha Screen Protein A detection kit containing donor and acceptor beads was purchased from PerkinElmer Life Sciences. The final concentration of both donor and acceptor beads was 25 μg/ml. Alpha Screen was used for detection. The biotinylated-PDK1-4 peptide was phosphorylated by PDK1 kinase using the ATP substrate. The biotinylated-PDK1-4 peptide substrate was bound to the streptavidin coated donor bead. The antibody was bound to the protein A coated acceptor bead. The antibody bound to the phosphorylated form of the biotinylated PDK-1 peptide substrate, bringing the donor and acceptor beads into close proximity. Laser irradiation of the donor bead at 680 nm generated a flow of short-lived singlet oxygen molecules. When the donor and acceptor beads were in close proximity, the reactive oxygen generated by the irradiation of the donor beads initiated a luminescence/fluorescence cascade in the acceptor beads. This process led to a highly amplified signal with output in the 530-620 nm range. Assays were carried out in 50 mM Tris, pH=7.5, 10 mM MgCl2, 0.1% Bovine Serum Albumin, 0.01% Tween-20, 2 mM Dithiolthreitol, 2.5% Dimethyl Sulfoxide. Reactions were stopped by adding 50 mM Tris, pH=7.5, 90 mM EDTA, 0.1% Bovine Serum Albumin, 0.01% Tween-20.
Procedure: To 10 μl of PDK1-4 peptide, 0.5 μl of test compound in dimethyl sulfoxide is added. PDK1 kinase and ATP are mixed. 10 μl of the PDK1 kinase/ATP mix is added to start the reaction. The reaction is allowed to proceed for 3-18 hours. The reactions are stopped by adding 10 μl of the EDTA-containing stop buffer. Beads are mixed with antibody. 25 μl of the bead/antibody mix is added to the stopped reactions. Plates are incubated at room temperature overnight to allow for detection development before being read. The assay is run is a 384-well format. […]

PC-3 cells = assay: Cell Proliferation Assay (Cell Titer Glo), PC-3 cell line; format: cell-based; conditions: Homo sapiens, PC-3, Cell Proliferation Assay, PC3; read-out: CPEC50 PC3
In short: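 PC-3 cells, 1000 cells/well, left to adhere 3-5 h, then exposed for 3 days at 37° C to compounds as 1:3 serial dilutions from 500× DMSO stocks diluted in growth medium. Medium then replaced with fresh medium and viability read by Cell Titer Glo luminescence.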

Row | Compound | IC50 (PDK1 kinase) [µM] | EC50 (PC-3 cells) [µM]
1 | O=C(NC1CC1)c1ccc(Nc2ncc3c(Br)ccc(OC4CCNCC4)c3n2)cc1 [Compound 341, 4-(5-bromo-8-(piperidin-4-yloxy)quinazolin-2-ylamino)-N-cyclopropylbenzamide] | < 5 | 5 to 10
2 | CC(C)NS(=O)(=O)c1ccc(Nc2ncc3c(Br)ccc(OC4CCNCC4)c3n2)cc1 [Compound 342, 4-(5-bromo-8-(piperidin-4-yloxy)quinazolin-2-ylamino)-N-isopropylbenzenesulfonamide] | < 5 | < 5
3 | O=C(c1ccc(Nc2ncc3ccc(-c4cnn(CCF)c4)cc3n2)cc1)N1CCOCC1 [Compound 343, (4-(7-(1-(2-fluoroethyl)-1H-pyrazol-4-yl)quinazolin-2-ylamino)phenyl)(morpholino)methanone] | < 5 | < 5
4 | O=C(c1ccc(Nc2ncc3ccc(-c4cn[nH]c4)cc3n2)cc1)N1CCOCC1 [Compound 344, (4-(7-(1H-pyrazol-4-yl)quinazolin-2-ylamino)phenyl)(morpholino)methanone] | < 5 | < 5
5 | CN1CCC(Nc2ccc3cnc(Nc4ccc(C(=O)N5CCOCC5)cc4)nc3c2)CC1 [Compound 345, (4-(7-(1-methylpiperidin-4-ylamino)quinazolin-2-ylamino)phenyl)(morpholino)methanone] | < 5 | < 5
6 | CN1CCC(Nc2ccc3cnc(Nc4ccc(S(=O)(=O)N5CCOCC5)cc4)nc3c2)CC1 [Compound 346, N7-(1-methylpiperidin-4-yl)-N2-(4-(morpholinosulfonyl)phenyl)quinazoline-2,7-diamine] | < 5 | < 5
7 | O=C(c1ccc(Nc2ncc3ccc(NC4CCNCC4)cc3n2)cc1)N1CCOCC1 [Compound 347, morpholino(4-(7-(piperidin-4-ylamino)quinazolin-2-ylamino)phenyl)methanone] | < 5 | < 5
8 | CN1CCC(CNc2ccc3cnc(Nc4ccc(C(=O)N5CCOCC5)cc4)nc3c2)CC1 [Compound 348] | < 5 | 5 to 10
9 | COCCn1cc(-c2ccc3cnc(Nc4ccc(C(=O)N5CCOCC5)cc4)nc3c2)cn1 [Compound 349, (4-(7-(1-(2-methoxyethyl)-1H-pyrazol-4-yl)quinazolin-2-ylamino)phenyl)(morpholino)methanone] | < 5 | < 5
10 | CC(C)NS(=O)(=O)c1ccc(Nc2ncc3ccc(NC4CCN(C)CC4)cc3n2)cc1 [Compound 350, N-isopropyl-4-(7-(1-methylpiperidin-4-ylamino)quinazolin-2-ylamino)benzenesulfonamide] | < 5 | < 5
11 | O=C(c1ccc(Nc2ncc3ccc(NCC4CCNCC4)cc3n2)cc1)N1CCOCC1 [Compound 351, morpholino(4-(7-(piperidin-4-ylmethylamino)quinazolin-2-ylamino)phenyl)methanone] | < 5 | 5 to 10
12 | O=C(c1ccc(Nc2ncc3ccc(N(CCO)CCO)cc3n2)cc1)N1CCOCC1 [Compound 352, (4-(7-(bis(2-hydroxyethyl)amino)quinazolin-2-ylamino)phenyl)(morpholino)methanone] | < 5 | 5 to 10
13 | O=C(c1ccc(Nc2ncc3ccc(-c4cnn(CCO)c4)cc3n2)cc1)N1CCOCC1 [Compound 353, (4-(7-(1-(2-hydroxyethyl)-1H-pyrazol-4-yl)quinazolin-2-ylamino)phenyl)(morpholino)methanone] | < 5 | 5 to 10
14 | CC(C)NC(=O)c1ccc(Nc2ncc3ccc(NC4CCN(C)CC4)cc3n2)cc1 [Compound 354, N-isopropyl-4-(7-(1-methylpiperidin-4-ylamino)quinazolin-2-ylamino)benzamide] | < 5 | < 5
15 | CN1CCC(Nc2ccc3cnc(Nc4ccc(N5CCOCC5)c(Cl)c4)nc3c2)CC1 [Compound 355, N2-(3-chloro-4-morpholinophenyl)-N7-(1-methylpiperidin-4-yl)quinazoline-2,7-dimaine] | < 5 | < 5

Now from value to compound:

Row | IC50 (PDK1 kinase) [µM] | EC50 (PC-3 cells) [µM] | Compound
16 | < 5 | 5 to 10 | Cc1cc(Nc2ncc3ccc(OC4CCN(C(C)C)CC4)cc3n2)ccc1F [Compound 327, N-(4-fluoro-3-methylphenyl)-7-(1-isopropyl-piperidin-4-yloxy)-quinazolin-2-amine]
17 | < 5 | < 5 | CC(C)N1CCC(c2c(O)ccc3cnc(Nc4ccc(N5CCOCC5)cc4)nc23)CC1 [Compound 328, 8-(1-isopropylpiperidin-4-yl)-2-(4-morpholinophenylamino)quinazolin-7-ol]
18 | < 5 | < 5 | CC(C)NC(=O)c1ccc(Nc2ncc3ccc(OC4CCN(C(C)C)CC4)cc3n2)cc1 [Compound 329, N-isopropyl-4-(7-(1-isopropylpiperidin-4-yloxy)quinazolin-2-ylamino)benzamide]
19 | < 5 | 5 to 10 | O=c1[nH]c2ccc(Nc3ncc4ccc(OC5CCNCC5)cc4n3)cc2[nH]1 [Compound 330, 5-(7-(piperidin-4-yloxy)-quinazolin-2-ylamino]-1H-benzo[d]imidazol-2(3H)-one]
20 | < 5 | < 5 | CC(C)N1CCC(Oc2ccc3cnc(Nc4ccc(S(C)(=O)=O)cc4)nc3c2)CC1 [Compound 331, 7-(1-isopropylpiperidin-4-yloxy)-N-(4-(methylsulfonyl)phenyl)quinazolin-2-amine]
21 | < 5 | < 5 | O=S(=O)(c1ccc(Nc2ncc3ccc(OC4CCNCC4)cc3n2)cc1)N1CCOCC1 [Compound 332]
22 | < 5 | < 5 | O=S(=O)(c1ccc(Nc2ncc3ccc(OC4CCN(CCF)CC4)cc3n2)cc1)N1CCOCC1 [Compound 333, 7-(1-(2-fluoroethyl)piperidine-4-yloxy)-N-(4-(morpholinosulfonyl)phenyl)quinazolin-2-amine]
23 | < 5 | 5 to 10 | O=S(=O)(c1ccc(Nc2ncc3ccc(OC4CCN(CC(F)F)CC4)cc3n2)cc1)N1CCOCC1 [Compound 334, 7-(1-(2,2-difluoroethyl)piperidin-4-yloxy)-N-(4-(morpholinosulfonyl)phenyl)quinazolin-2-amine]
24 | < 5 | < 5 | Fc1ccc(Nc2ncc3cccc(OC4CCNCC4)c3n2)cc1 [Compound 335]
25 | < 5 | 5 to 10 | Brc1ccc(OC2CCNCC2)c2nc(Nc3cccc(N4CCOCC4)c3)ncc12 [Compound 336, 5-bromo-N-(3-morpholinophenyl)-8-(piperidin-4-yloxy)quinazolin-2-amine]
26 | < 5 | < 5 | CC(C)NC(=O)c1ccc(Nc2ncc3c(Br)ccc(OC4CCNCC4)c3n2)cc1 [Compound 337, 4-(5-bromo-8-(piperidin-4-yloxy)quinazolin-2-ylamino)-N-isopropylbenzamide]
27 | < 5 | < 5 | Clc1cc(Nc2ncc3c(Br)ccc(OC4CCNCC4)c3n2)ccc1N1CCOCC1 [Compound 338, 5-bromo-N-(3-chloro-4-morpholinophenyl)-8-(piperidine-4-yloxy) quinazolin-2-amine]
28 | < 5 | < 5 | Fc1cc(Nc2ncc3c(Br)ccc(OC4CCNCC4)c3n2)ccc1N1CCOCC1 [Compound 339, 5-bromo-N-(3-fluoro-4-morpholinophenyl)-8-(piperidin-4-yloxy)quinazolin-2-amine]
29 | < 5 | 5 to 10 | Cc1ccc(OC2CCNCC2)c2nc(Nc3ccc(C(=O)NC(C)C)cc3)ncc12 [Compound 340, N-isopropyl-4-(5-methyl-8-(piperidin-4-yloxy)quinazolin-2-ylamino)benzamide]
